# Target: T1, CDK9/CyclinT1 (Homo sapiens, UniProt P50750)
# T1 construct: Recombinant full-length His-tagged human CDK9 and CycT1; His-tag; purchased Life Technologies PV4131; host or cells: insect cells
# Assay: CDK9/CycT1 high ATP kinase assay (TR-FRET)
# Assay type: biochemical
# Settings: 2 mM ATP (high ATP); median; read-out: CDK9/CyclinT1, 2 mM ATP (high ATP) IC50 - [mol/l] (median)
# Description: 2.5 CDK9/CycT1 High ATP Kinase Assay
# CDK9/CycT1 -inhibitory activity of compounds of the present invention at a high ATP concentration after preincubation of enzyme and test compounds was quantified employing the CDK9/CycT1 TR-FRET assay as described in the following paragraphs.
# Recombinant full-length His-tagged human CDK9 and CycT1, expressed in insect cells and purified by Ni-NTA affinity chromatography, were purchased from Life Technologies (Cat. No PV4131). As substrate for the kinase reaction biotinylated peptide biotin-Ttds-YISPLKSPYKISEG (C-terminus in amide form) was used which can be purchased e.g. form the company JERINI peptide technologies (Berlin, Germany).
# For the assay 50 nanoL of a 100 fold concentrated solution of the test compound in DMSO was pipetted into either a black low volume 384 well microtiter plate or a black 1536 well microtiter plate (both Greiner Bio-One, Frickenhausen, Germany), 2 microL of a solution of CDK9/CycT1 in aqueous assay buffer [50 millimol/L Tris/HCl pH 8.0, 10 millimol/L MgCl2, 1.0 millimol/L dithiothreitol, 0.1 millimol/L sodium ortho-vanadate, 0.01% (v/v) Nonidet-P40 (Sigma)] were added and the mixture was incubated for 15 min at 22° C. to allow pre-binding of the test compounds to the enzyme before the start of the kinase reaction. Then the kinase reaction was started by the addition of 3 microL of a solution of adenosine-tri-phosphate (ATP, 3.3 millimol/L=>final conc. in the 5 microL assay volume is 2 millimol/L) and substrate (1.25 micromol/L =>final conc. in the 5 microL assay volume is 0.75 micromol/L) in assay buffer and the resulting mixture was incubated for a reaction time of 25 min at 22° C. The concentration of CDK9/CycT1 was adjusted depending of the activity of the enzyme lot and was chosen appropriate to have the assay in the linear range, typical concentrations were in the range of 0.5 microg/mL. The reaction was stopped by the addition of 3 microL of a solution of TR-FRET detection reagents (0.33 micromol/L streptavidine-XL665 [Cisbio Bioassays, Codolet, France] and 1.67 nanomol/L anti-RB(pSer807/pSer811)-antibody from BD Pharmingen [#558389] and 2 nanomol/L LANCE EU-W1024 labeled anti-mouse IgG antibody [Perkin-Elmer, product no. AD0077]) in an aqueous EDTA-solution (167 millimol/L EDTA, 0.2% (w/v) bovine serum albumin in 100 millimol/L HEPES pH 7.5).
# The resulting mixture was incubated 1 h at 22° C. to allow the formation of complex between the phosphorylated biotinylated peptide and the detection reagents. Subsequently the amount of phosphorylated substrate was evaluated by measurement of the resonance energy transfer from the Eu-chelate to the streptavidine-XL. Therefore, the fluorescence emissions at 620 nm and 665 nm after excitation at 350 nm was measured in a TR-FRET reader, e.g. a Pherastar (BMG Labtechnologies, Offenburg, Germany) or a Viewlux (Perkin-Elmer). The ratio of the emissions at 665 nm and at […] was taken as the measure for the amount of phosphorylated substrate. The data were normalised (enzyme reaction without inhibitor=0% inhibition, all other assay components but no enzyme=100% inhibition).
# T1 sequence (P50750 whole entry): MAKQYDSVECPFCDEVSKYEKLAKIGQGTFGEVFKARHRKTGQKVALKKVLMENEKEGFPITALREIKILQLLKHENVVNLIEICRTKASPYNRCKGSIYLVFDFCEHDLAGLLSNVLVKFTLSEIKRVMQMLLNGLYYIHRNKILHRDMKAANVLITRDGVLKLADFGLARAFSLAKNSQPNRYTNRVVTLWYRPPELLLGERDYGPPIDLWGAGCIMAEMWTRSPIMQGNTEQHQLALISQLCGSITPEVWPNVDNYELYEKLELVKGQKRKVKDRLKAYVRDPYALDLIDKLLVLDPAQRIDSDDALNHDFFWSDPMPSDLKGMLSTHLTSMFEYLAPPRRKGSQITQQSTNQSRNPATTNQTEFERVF
# T1 sequence (O60563 whole entry partner): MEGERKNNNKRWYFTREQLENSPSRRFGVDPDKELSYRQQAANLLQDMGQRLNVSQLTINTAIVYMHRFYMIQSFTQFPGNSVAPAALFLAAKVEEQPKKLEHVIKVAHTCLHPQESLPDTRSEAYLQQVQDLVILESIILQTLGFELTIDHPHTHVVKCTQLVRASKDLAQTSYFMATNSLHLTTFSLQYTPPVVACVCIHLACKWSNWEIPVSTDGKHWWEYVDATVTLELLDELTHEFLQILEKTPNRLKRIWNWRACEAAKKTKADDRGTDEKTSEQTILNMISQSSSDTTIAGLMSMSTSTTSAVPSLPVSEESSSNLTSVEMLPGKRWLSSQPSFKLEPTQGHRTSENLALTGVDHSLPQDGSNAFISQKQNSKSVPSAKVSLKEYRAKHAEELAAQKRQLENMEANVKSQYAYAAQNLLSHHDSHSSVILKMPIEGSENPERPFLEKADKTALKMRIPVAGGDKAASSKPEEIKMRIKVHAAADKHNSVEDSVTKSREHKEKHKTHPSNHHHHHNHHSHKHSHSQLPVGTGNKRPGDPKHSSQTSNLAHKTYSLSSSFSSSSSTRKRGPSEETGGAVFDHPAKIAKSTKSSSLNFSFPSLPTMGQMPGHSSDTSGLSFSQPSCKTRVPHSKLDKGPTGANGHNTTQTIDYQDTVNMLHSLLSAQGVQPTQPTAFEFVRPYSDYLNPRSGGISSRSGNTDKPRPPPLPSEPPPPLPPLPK
row,Structure (SMILES),IC50
1,"COCCC(C)n1nc(NCc2nc3ccccc3[nH]2)c2ncc(C3CC3)nc21 (single isomer, unassigned; (-)) [Example 58, (−)-N-[(1H-benzimidazol-2-yl)methyl]-6-cyclopropyl-1-[4-methoxybutan-2-yl]-1H-pyrazolo[3,4-b]pyrazin-3-amine]",> 20 µM
2,"CN1CCC(n2nc(NCc3nc4c(F)cccc4[nH]3)c3ncc(C4CC4)nc32)CC1 [Example 3, 6-cyclopropyl-N-[(4-fluoro-1H-benzimidazol-2-yl)methyl]-1-(1-methylpiperidin-4-yl)-1H-pyrazolo[3,4-b]pyrazin-3-amine]",> 20 µM
3,"FC1(F)CCC(n2nc(NCc3nc4ccccc4[nH]3)c3ncc(C4CC4)nc32)CC1 [Example 36, N-[(1H-benzimidazol-2-yl)methyl]-6-cyclopropyl-1-(4,4-difluorocyclohexyl)-1H-pyrazolo[3,4-b]pyrazin-3-amine]",> 20 µM
4,"CN1CCC(n2nc(NCc3nc4cc(F)ccc4[nH]3)c3ncc(C4CC4)nc32)CC1 [Example 4, 6-cyclopropyl-N-[(5-fluoro-1H-benzimidazol-2-yl)methyl]-1-(1-methylpiperidin-4-yl)-1H-pyrazolo[3,4-b]pyrazin-3-amine]",> 20 µM
5,"CN(C)CCn1nc(NCc2nc3ccccc3[nH]2)c2ncc(C3CC3)nc21 [Example 68, N-[(1H-benzimidazol-2-yl)methyl]-6-cyclopropyl-1-[2-(dimethylamino)ethyl]-1H-pyrazolo[3,4-b]pyrazin-3-amine]",> 20 µM
6,"Cc1ccc2[nH]c(CNc3nn(C4CCN(C)CC4)c4nc(C5CC5)cnc34)nc2c1C [Example 28, 6-cyclopropyl-N-[(4,5-dimethyl-1H-benzimidazol-2-yl)methyl]-1-(1-methylpiperidin-4-yl)-1H-pyrazolo[3,4-b]pyrazin-3-amine]",> 20 µM
7,"c1ccc2[nH]c(CNc3nn(C4CCCC4)c4nc(C5CC5)cnc34)nc2c1 [Example 39, N-[(1H-benzimidazol-2-yl)methyl]-1-cyclopentyl-6-cyclopropyl-1H-pyrazolo[3,4-b]pyrazin-3-amine]",> 20 µM
8,"Fc1cccc2[nH]c(CNc3nn(C4CCOCC4)c4nc(C5CC5)cnc34)nc12 [Example 23, 6-cyclopropyl-N-[(4-fluoro-1H-benzimidazol-2-yl)methyl]-1-(oxan-4-yl)-1H-pyrazolo[3,4-b]pyrazin-3-amine]",> 20 µM
9,"c1ccc2[nH]c(CNc3nn(C4CCOC4)c4nc(C5CC5)cnc34)nc2c1 (racemic) [Example 10, (±)-N-[(1H-benzimidazol-2-yl)methyl]-6-cyclopropyl-1-[oxolan-3-yl]-1H-pyrazolo[3,4-b]pyrazin-3-amine]",> 20 µM
10,"CN1CCCC(n2nc(NCc3nc4ccccc4[nH]3)c3ncc(C4CC4)nc32)CC1 (single isomer, unassigned) [Example 37, (+) or (−)-N-[(1H-benzimidazol-2-yl)methyl]-6-cyclopropyl-1-[(4R*)-1-methylazepan-4-yl]-1H-pyrazolo[3,4-b]pyrazin-3-amine]",> 20 µM
11,"c1ccc2[nH]c(CNc3nn(C4CC5(COC5)C4)c4nc(C5CC5)cnc34)nc2c1 [Example 54, N-[(1H-benzimidazol-2-yl)methyl]-6-cyclopropyl-1-(2-oxaspiro[3.3]heptan-6-yl)-1H-pyrazolo[3,4-b]pyrazin-3-amine]",> 20 µM

# Next, values leading:
row,IC50,Structure (SMILES)
1,> 20 µM,"c1ccc2[nH]c(CNc3nn(C4CCOC4)c4nc(C5CC5)cnc34)nc2c1 (single isomer, unassigned) [Example 17, (+) or (−)-N-[(1H-benzimidazol-2-yl)methyl]-6-cyclopropyl-1-(oxolan-3-yl)-1H-pyrazolo[3,4-b]pyrazin-3-amine]"
2,> 20 µM,"CC1CC(n2nc(NCc3nc4ccccc4[nH]3)c3ncc(C4CC4)nc32)CCN1C (racemic) [Example 41, (±)-cis/trans-N-[(1H-benzimidazol-2-yl)methyl]-6-cyclopropyl-1-(1,2-dimethylpiperidin-4-yl)-1H-pyrazolo[3,4-b]pyrazin-3-amine]"
3,> 20 µM,"OCCCn1nc(NCc2nc3ccccc3[nH]2)c2ncc(C3CC3)nc21 [Example 60, 3-(3-{[(1H-benzimidazol-2-yl)methyl]amino}-6-cyclopropyl-1H-pyrazolo[3,4-b]pyrazin-1-yl)propan-1-ol]"
4,> 20 µM,"CC(C)(O)Cn1nc(NCc2nc3ccccc3[nH]2)c2ncc(C3CC3)nc21 [Example 69, 1-(3-{[(1H-benzimidazol-2-yl)methyl]amino}-6-cyclopropyl-1H-pyrazolo[3,4-b]pyrazin-1-yl)-2-methylpropan-2-ol]"
5,> 20 µM,"CN1CCC(n2nc(NCc3nc4ccccc4[nH]3)c3ncc(C4CC4)nc32)C1 (single isomer, unassigned) [Example 78, (+) or (−)-N-[(1H-benzimidazol-2-yl)methyl]-6-cyclopropyl-1-(1-methylpyrrolidin-3-yl)-1H-pyrazolo[3,4-b]pyrazin-3-amine]"
6,> 20 µM,"OC1(Cn2nc(NCc3nc4ccccc4[nH]3)c3ncc(C4CC4)nc32)CCC1 [Example 72, 1-[(3-{[(1H-benzimidazol-2-yl)methyl]amino}-6-cyclopropyl-1H-pyrazolo[3,4-b]pyrazin-1-yl)methyl]cyclobutan-1-ol]"
7,> 20 µM,"CN1CCC(n2nc(NCc3nc4cc(Cl)ccc4[nH]3)c3ncc(C4CC4)nc32)CC1 [Example 22, N-[(5-chloro-1H-benzimidazol-2-yl)methyl]-6-cyclopropyl-1-(1-methylpiperidin-4-yl)-1H-pyrazolo[3,4-b]pyrazin-3-amine]"
8,> 20 µM,"CN1CCC(n2nc(NCc3nc4c(F)c(F)ccc4[nH]3)c3ncc(C4CC4)nc32)CC1 [Example 9, 6-cyclopropyl-N-[(4,5-difluoro-1H-benzimidazol-2-yl)methyl]-1-(1-methylpiperidin-4-yl)-1H-pyrazolo[3,4-b]pyrazin-3-amine]"
9,> 20 µM,"COCCCn1nc(NCc2nc3ccccc3[nH]2)c2ncc(C3CC3)nc21 [Example 61, N-[(1H-benzimidazol-2-yl)methyl]-6-cyclopropyl-1-(3-methoxypropyl)-1H-pyrazolo[3,4-b]pyrazin-3-amine]"
10,> 20 µM,"CC1(C)CC(n2nc(NCc3nc4ccccc4[nH]3)c3ncc(C4CC4)nc32)CC(C)(C)O1 [Example 52, N-[(1H-benzimidazol-2-yl)methyl]-6-cyclopropyl-1-(2,2,6,6-tetramethyloxan-4-yl)-1H-pyrazolo[3,4-b]pyrazin-3-amine]"
11,> 20 µM,"CC1COCCC1n1nc(NCc2nc3ccccc3[nH]2)c2ncc(C3CC3)nc21 (racemic) [Example 42, (±)-cis/trans-N-[(1H-benzimidazol-2-yl)methyl]-6-cyclopropyl-1-(3-methyloxan-4-yl)-1H-pyrazolo[3,4-b]pyrazin-3-amine]"
12,> 20 µM,"c1ccc2[nH]c(CNc3nn(C4COC4)c4nc(C5CC5)cnc34)nc2c1 [Example 55, N-[(1H-benzimidazol-2-yl)methyl]-6-cyclopropyl-1-(oxetan-3-yl)-1H-pyrazolo[3,4-b]pyrazin-3-amine]"
13,> 20 µM,"CN1CCCC(n2nc(NCc3nc4ccccc4[nH]3)c3ncc(C4CC4)nc32)CC1 (racemic) [Example 34, (±)-N-[(1H-benzimidazol-2-yl)methyl]-6-cyclopropyl-1-(1-methylazepan-4-yl)-1H-pyrazolo[3,4-b]pyrazin-3-amine]"
14,> 20 µM,"c1ccc2[nH]c(CNc3nn(C4CCOCC4)c4nc(C5CC5)cnc34)nc2c1 [Example 16, N-[(1H-benzimidazol-2-yl)methyl]-6-cyclopropyl-1-(oxan-4-yl)-1H-pyrazolo[3,4-b]pyrazin-3-amine]"
15,> 20 µM,"COCCC(C)n1nc(NCc2nc3ccccc3[nH]2)c2ncc(C3CC3)nc21 (racemic) [Example 57, (±)-N-[(1H-benzimidazol-2-yl)methyl]-6-cyclopropyl-1-(4-methoxybutan-2-yl)-1H-pyrazolo[3,4-b]pyrazin-3-amine]"

# Reference: patent US20230192700A1, “PYRAZOLOPYRAZINES ACTING ON CANCERS VIA INHIBITION OF CDK12” (Bayer Aktiengesellschaft, priority 2020, published 2023)
